Measured values taken from publication PMC12608647, “Synthesis and Activity Evaluation of Novel Benzoxazepinone Derivatives as Potential Inhibitors of Glycogen Phosphorylase” (Molecules, 2025).
Entries after “also recorded” stand apart in the source; their conditions may differ.

Key:
[1] = biological target: T1, rabbit muscle glycogen phosphorylase a (RMGPa) (Oryctolagus cuniculus, UniProt P00489); assay: RMGPa inhibition assay (phosphate release from glucose-1-phosphate); assay type: biochemical; conditions: for IC50: mean ± SD of three determinations
T1 sequence (P00489 2-843 limits assumed): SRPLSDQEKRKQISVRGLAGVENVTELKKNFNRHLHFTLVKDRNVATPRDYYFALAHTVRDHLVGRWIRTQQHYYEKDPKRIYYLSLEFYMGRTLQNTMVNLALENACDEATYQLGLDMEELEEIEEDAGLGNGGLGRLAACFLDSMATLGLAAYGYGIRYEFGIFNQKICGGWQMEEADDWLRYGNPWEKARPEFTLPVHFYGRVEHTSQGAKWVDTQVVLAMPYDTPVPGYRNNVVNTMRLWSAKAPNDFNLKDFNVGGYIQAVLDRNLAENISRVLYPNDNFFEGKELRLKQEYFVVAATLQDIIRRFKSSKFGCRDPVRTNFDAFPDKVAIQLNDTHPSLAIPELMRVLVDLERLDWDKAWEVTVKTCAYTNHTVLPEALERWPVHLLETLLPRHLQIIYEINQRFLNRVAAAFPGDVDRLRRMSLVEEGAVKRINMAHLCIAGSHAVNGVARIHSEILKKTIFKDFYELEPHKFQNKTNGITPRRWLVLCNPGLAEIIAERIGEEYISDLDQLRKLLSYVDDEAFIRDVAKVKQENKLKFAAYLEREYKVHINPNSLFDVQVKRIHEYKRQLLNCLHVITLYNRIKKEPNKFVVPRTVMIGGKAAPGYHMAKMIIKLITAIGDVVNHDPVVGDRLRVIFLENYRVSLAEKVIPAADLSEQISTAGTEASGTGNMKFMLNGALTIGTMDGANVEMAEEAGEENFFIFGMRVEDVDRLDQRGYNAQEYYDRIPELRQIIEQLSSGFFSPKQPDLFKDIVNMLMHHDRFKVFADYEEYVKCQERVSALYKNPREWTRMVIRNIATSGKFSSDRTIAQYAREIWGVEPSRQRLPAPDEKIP
Experimental: The synthesized compounds were evaluated for their inhibitory activity against rabbit muscle glycogen phosphorylase a (RMGPa) according to a previously reported protocol. PSN-357, a compound in phase II clinical trials, was used as a positive control. We also used the parent structure 5d as a positive control (Figure 2).
The inhibitory activity of the test compounds against RMGPa was evaluated using a microplate reader (Bio-Rad Laboratories, Berkeley, CA, USA) according to a previously described method. Briefly, RMGPa activity was determined by measuring the release of phosphate from glucose-1-phosphate, which reflects the direction of glycogen synthesis. Each test compound was dissolved in DMSO and diluted to different concentrations for IC50 determination. The enzyme was added to 100 μL reaction mixtures in 96-well Costar microplates (Corning Inc., Corning, NY, USA) containing 50 mM HEPES (pH 7.2), 100 mM potassium chloride (KCl), 2.5 mM magnesium chloride (MgCl2), 0.5 mM glucose-1-phosphate, 1 mg/mL glycogen, and the test compounds. After incubation at 22 °C for 25 min, 150 μL of a solution containing 10 mg/mL ammonium molybdate and 0.38 mg/mL malachite green was added. The absorbance of phosphate was measured at 620 nm. IC50 values were estimated by fitting the inhibition data to a dose–response curve using a logistic regression equation.

HL-7702 cells = assay: Glycogenolysis inhibition assay in HL-7702 cells; assay type: cell-based, human; conditions: for IC50: Homo sapiens, L02, 1 h, HL-7702 cells, 0.3 nM glucagon, 60 min, mean ± SD of three determinations
Experimental: To evaluate the effects of the synthesized compounds on glycogen degradation, compounds 8a–8i were subjected to a glycogenolysis assay in HL-7702 cells.
The inhibitory effect on hepatic glycogenolysis was quantitatively assessed by colorimetry using a microplate reader (Bio-Rad Laboratories) and anthrone reagent (Sigma-Aldrich, St. Louis, MO, USA), as previously described. Primary human liver HL-7702 cells (National Collection of Authenticated Cell Cultures) were treated with test compounds or DMSO solvent (final concentration, 0.10%) and then co-incubated with 0.3 nM glucagon for 60 min. After termination of the reaction by centrifugation, the cells were digested with 30% potassium hydroxide, and the glycogen content was determined. When culturing cells to concentration, a 6-well plate is used for cell culture, with a cell seeding density of 10^6 cells per well. The condition is set at a constant temperature of 37 degrees Celsius. The repetition count is three times. The activity assessment criteria were based on the positive drug psn-357 and the parent nuclear compound 5d. IC50 values were estimated by fitting the inhibition data to a logistic regression equation to generate dose–response curves. Analysis was conducted using SPSS Statistics 17.0. In vitro data are presented as mean ± SD, and in vivo data as mean ± SEM. Differences between two groups were assessed using Student’s t-test, and comparisons among three or more groups using ANOVA. A p-value < 0.05 was considered significant.

IC50 [1] [µM]	RMGPa inhibitory activity relative to PSN-357 ([1]; versus PSN-357)	Compound	IC50 (HL-7702 cells) [µM]	potency relative to parent structure 5d in HL-7702 cells (HL-7702 cells; versus 5d)	potency relative to PSN-357 in HL-7702 cells (inhibition of glycogen degradation) (HL-7702 cells; versus PSN-357)
0.62 ± 0.16	–	O=C(Nc1ccc2c(c1)C(=O)NC(OCc1ccccc1)CO2)c1cc2cc(Cl)ccc2[nH]1 (centres unmarked) [Compound 8g, N-(3-(benzyloxy)-5-oxo-2,3,4,5-tetrahydrobenzo[f][1,4]oxazepin-7-yl)-5-chloro-1H-indole-2-carboxamide]	1.51 ± 0.21	twice	threefold increase; also recorded: three times greater
0.7 ± 0.55	–	CC(C)CCOC1COc2ccc(NC(=O)c3cc4cc(Cl)ccc4[nH]3)cc2C(=O)N1 (centres unmarked) [Compound 8h, 5-chloro-N-(3-(isopentyloxy)-5-oxo-2,3,4,5-tetrahydrobenzo[f][1,4]oxazepin-7-yl)-1H-indole-2-carboxamide]	6.99 ± 0.99	–	–
0.29 ± 0.1	–	CCCCCCOC1COc2ccc(NC(=O)c3cc4cc(Cl)ccc4[nH]3)cc2C(=O)N1 (centres unmarked) [Compound 8f, 5-chloro-N-(3-(hexyloxy)-5-oxo-2,3,4,5-tetrahydrobenzo[f][1,4]oxazepin-7-yl)-1H-indole-2-carboxamide]	7.67 ± 1.98	–	–
0.21 ± 0.05	twice as strong	COC1COc2ccc(NC(=O)c3cc4cc(Cl)ccc4[nH]3)cc2C(=O)N1 (centres unmarked) [Compound 8a, 5-chloro-N-(3-methoxy-5-oxo-2,3,4,5-tetrahydrobenzo[f][1,4]oxazepin-7-yl)-1H-indole-2-carboxamide]	8.51 ± 3.99	–	–
1.61 ± 0.41	–	CCOC1COc2ccc(NC(=O)c3cc4cc(Cl)ccc4[nH]3)cc2C(=O)N1 (centres unmarked) [Compound 8b, 5-chloro-N-(3-ethoxy-5-oxo-2,3,4,5-tetrahydrobenzo[f][1,4]oxazepin-7-yl)-1H-indole-2-carboxamide]	6.77 ± 0.93	–	–

Second part, the molecule before the results:

Compound	IC50 [1] [µM]	RMGPa inhibitory activity relative to PSN-357 ([1]; versus PSN-357)	IC50 (HL-7702 cells) [µM]	potency relative to parent structure 5d in HL-7702 cells (HL-7702 cells; versus 5d)	potency relative to PSN-357 in HL-7702 cells (inhibition of glycogen degradation) (HL-7702 cells; versus PSN-357)
COCCOC1COc2ccc(NC(=O)c3cc4cc(Cl)ccc4[nH]3)cc2C(=O)N1 (centres unmarked) [Compound 8i, 5-chloro-N-[3-(2-methoxyethoxy)-5-oxo-2,3,4,5-tetrahydrobenzo[f][1,4]oxazepin-7-yl]-1H-indole-2-carboxamide]	5.31 ± 0.62	–	> 15.4	–	–
CCCCCOC1COc2ccc(NC(=O)c3cc4cc(Cl)ccc4[nH]3)cc2C(=O)N1 (centres unmarked) [Compound 8e, 5-chloro-N-(5-oxo-3-(pentyloxy)-2,3,4,5-tetrahydrobenzo[f][1,4]oxazepin-7-yl)-1H-indole-2-carboxamide]	0.88 ± 0.03	–	15.4 ± 0.89	–	–
CCCCOC1COc2ccc(NC(=O)c3cc4cc(Cl)ccc4[nH]3)cc2C(=O)N1 (centres unmarked) [Compound 8d, N-(3-butoxy-5-oxo-2,3,4,5-tetrahydrobenzo[f][1,4]oxazepin-7-yl)-5-chloro-1H-indole-2-carboxamide]	0.71 ± 0.25	–	9.81 ± 1.39	–	–
O=C(N[C@@H](Cc1ccc(F)cc1)C(=O)N1CCC(O)CC1)c1cc2cc(Cl)ncc2[nH]1 [PSN-357, reference compound]	–	–	4.94 ± 0.28	–	–
O=C(Nc1ccc2c(c1)C(=O)NCCO2)c1cc2cc(Cl)ccc2[nH]1 [Compound 5d, reference compound]	0.25 ± 0.05	–	3.75 ± 2.67	–	–
CCCOC1COc2ccc(NC(=O)c3cc4cc(Cl)ccc4[nH]3)cc2C(=O)N1 (centres unmarked) [Compound 8c, 5-chloro-N-(5-oxo-3-propoxy-2,3,4,5-tetrahydrobenzo[f][1,4]oxazepin-7-yl)-1H-indole-2-carboxamide]	–	–	5.33 ± 1.39	–	–
